Results as given in patent publication US11311568B2, “Therapeutic pharmaceutical composition for cancer including miRNA” (Purmx Therapeutics, Inc., priority 2017, dated 2022).

Key:
[1] = tested on: malignant pleural mesothelioma cells EHMES-10; assay: Antitumor effect in vivo, subcutaneous transplantation of EHMES-10 cells; parameters: species or system SCID mouse; details: SCID mice, EHMES-10 subcutaneous, 13 administrations
Protocol: Malignant pleural mesothelioma cells EHMES-10 cells were used.
1: The cells on the dish were washed twice with PBS (-).
2: The cells were detached with trypsin.
3: This was suspended in a medium, and cells were counted.
4: Centrifugation at a condition of 1000 rpm for 3 min was performed to pellet down.
5: The cells were resuspended in PBS (-) in order to obtain 2.0×10^7 cells/mL.
Six weeks-old C-B-17/Icr-scid/scid Jcl (SCID mouse) were used as mice. SCID mice were subcutaneously administered 100 μL of the prepared cell suspension, and the cells were allowed to settle.
Negative control which is the control sequence and miR-3140-3p which is the miRNA of the present invention were employed. A6K (from 3D Matrix) was employed as the nucleic acid delivery reagent. The administration of miRNA to mice was carried out with the following protocol.
1: 100 μM of the nucleic acid (miRNA) was diluted with 10% saline and sterilized water in order to obtain 71.4 μM.
2: 1% A6K solution was sonicated for 5 minutes before use.
3: The diluted nucleic acid and the 1% A6K solution were mixed at a proportion of 1:1 to give the administration nucleic acid.
4: SCID mice were subcutaneously administered (tumor site) 50 μL each of the administration nucleic acid.
1: From two days after transplantation, the nucleic acid was administered every one or two days. […]

[2] = tested on: large intestine cancer cell strain HT29; assay: Cell growth inhibition, cell count after transfection; assay type: cell-based; details: HT29, final concentration 10.0 nM, seven days after transfection, FIG. 12
Protocol: (§1) miR-3140-3p was transfected into large intestine cancer cell strains (SW620, SW480, and HT29), and cell proliferation was observed. Transfection was carried out with the following protocol.
(§2) 1: To a 35 mm dish were added 500 μL of serum free medium (SFM) and 5 μL of RNAiMAX (Invitrogen).
(§3) 2: To the solution from 1 was added 12.5 μL each of miR-Control or miR-3140-3p, miR-22-3p, and miR-34a-5p (stock conc. 2 μM) (final concentration 10.0 nM).
(§4) 3: This was incubated at room temperature for 20 minutes.
(§5) 4: 1.5 mL of a cell suspension diluted to 6.7×10^4 cells/mL was added to the 35 mm dish.
(§6) 5: This was incubated at 37° C. under 5% CO2 condition.
(§7) 6: The cells were counted seven days after transfection.
(§8) Setting the number of control introduction cells as 100%, the survival rate of cells in which miR-3140-3p was introduced was shown in %.

[3] = tested on: large intestine cancer cell strain SW620; assay: as above; assay type: cell-based; details: SW620, final concentration 10.0 nM, seven days after transfection, FIG. 12
Protocol: as §1, §2, §3, §4, §5, §6, §7, §8

[4] = tested on: large intestine cancer cell strain SW480; assay: as above; assay type: cell-based; details: SW480, final concentration 10.0 nM, seven days after transfection, FIG. 12
Protocol: as §1, §2, §3, §4, §5, §6, §7, §8

[5] = tested on: malignant pleural mesothelioma cell EHMES-10; assay: Calculation of IC50 value, cell survival with Cell Counting Kit 8; assay type: cell-based; details: five days after transfection
Protocol: The IC50 value of miR-3140-3p was calculated with malignant pleural mesothelioma cell EHMES-10.
The protocol therefor is shown below.
1: To 25 μL of serum free medium (SFM) was added 0.25 μL of RNAiMAX (Invitrogen).
2: miR-Control and miR-3140-3p were serially diluted so that the final concentrations will be 40 nM, 20 nM, 10 nM, 5 nM, 1 nM, 500 pM, 100 pM, 50 pM, 10 pM, 5 pM, and 1 pM, and mixed with SFM/RNAiMAX complex.
as §4
4: 75 μL of each of cells at 6.7×10^4 cells/mL were added to each well.
as §6
6: Five days after transfection, the survival rates of cells were investigated with Cell Counting Kit 8 (DOJINDO). The protocol therefor is shown below.
(i) Cell Counting Kit was diluted 10-folds with a medium.
(ii) 200 μL of each of the diluted Cell Counting Kit was added to each well.
(iii) This was incubated at 37° C. under 5% CO2 condition for 1 hour.
(iv) The values at 450 nm/600 nm were measured with a plate reader.
Note that the same control RNA as that used in Experiment 7 was employed as the control.

miR-3140-3p: Mature-miRNA, AGCUUUUGGGAAUUCAGGUAGU (SEQ ID NO. 2) (listed as RNA, chemistry not given here; listed as Homo sapiens)
tumor weight at endpoint compared to the control group ([1]; 33 days after transplantation, FIG. 16): a similar result | expansion of the tumor (luciferin imaging) compared to the control group ([1]; miRNA with A6K at tumor site, imaging at 12, 19, 26, 33 days, FIGS. 14-15): expansion of the tumor was suppressed | cell growth inhibition effect (survival rate of cells, control = 100%) [2]: extremely high cell growth inhibition effect | cell growth inhibition effect (survival rate of cells, control = 100%) [3]: extremely high cell growth inhibition effect | cell growth inhibition effect (survival rate of cells, control = 100%) [4]: extremely high cell growth inhibition effect | growth inhibition effect (survival rates of cells, Cell Counting Kit 8) ([5]; EHMES-10, 1 pM to 40 nM, FIG. 29): growth inhibition effect against malignant pleural mesothelioma cell strain EHMES-10 even at a very low concentration | IC50 ([5]; EHMES-10, final concentration, Cell Counting Kit 8): 570 pM
